The test system of one assay is HaCaT cells. Put plainly: Trypan blue exclusion assay, HaCaT. In kind it is cell-based, human. The following applies: IC50 concentration, 72 h. The protocol: The MTT assay assesses the viable cell number based on mitochondrial enzyme activity. […] In the next step of our studies, we analyzed the total cell number and viability after exposure to the selected compounds at IC50 concentration using trypan blue exclusion assay. K562 cells were incubated with tested compounds over 72 h. […] To assess the antiproliferative properties of newly synthesized derivatives, we analyzed the total cell number. […] The parallel experiment was conducted with HaCaT cells. […] The trypan blue test rapidly assesses cell viability indirectly from cell membrane integrity, but some publications have indicated weaknesses of this viability test. […] On the other hand, cell membrane integrity may be affected even while the cell might still be able to repair itself and become fully viable.
To evaluate the antiproliferative effects of the novel benzofurans derivatives the trypan blue exclusion assay was performed. Cells (HaCat, and K562) were seeded into 12-well plates (2 × 10^4 cells/well). After 24 h, cells were exposed to the tested compounds at concentrations of their respective IC50 and incubated for 72h. […] Cells were counted by automatic cell counter (Countessa). Data obtained were expressed as the mean ± SD and the mean percentage of viable cells was calculated from three independent experiments performed in triplicate.

Assay [1] relates to HaCaT cells (human immortal keratinocytes). Nature of the assay: MTT cytotoxicity assay, HaCaT. Type of assay: cell-based. The following applies: 72 h incubation, mean ± SD. As for the experimental part: (§1) The cell viability was analyzed at the following six concentrations of compounds: 5, 10, 20, 40, 60 and 100 µM after 72 h incubation.
(§2) Additionally, to determine the safety profile of the tested compounds, the therapeutic index (TI) (the ratio of IC50 value in HaCaT to cancer cells K562) was calculated. […] The goal of conducting the MTT assay in this research was to select benzofuran derivatives, which manage to reduce viability of cancer cells while exposing mild effects on normal healthy cells.
(§3) The cytotoxicity was evaluated by MTT reduction assay, which measures mitochondrial respiratory function. The test was performed based on the method described by Präbst et al.. Cells (1 × 10^4/well), in logarithmic phase, were seeded into 96-well plates in appropriate medium. After 24 h, cells were exposed to test compounds. […] After 72 h, the medium with the compounds was completely removed and MTT solution (0.5 mg/mL) in fresh medium without serum was added to each well. Plates with cells were incubated for 4 h at 37 °C in the dark. Then, MTT solution was removed and replenished with 0.1 mL DMSO: isopropanol (1:1) mixture to dissolve the generated formazan crystals. The optical density was measured with a […] GO (ThermoScientific) microplate reader at 570 nm. Replicates of three wells for each dosage, including vehicle control, were analyzed for each experiment. The experiments were conducted in triplicate. Control cells which were only treated with respective medium were used as the 100% viability value. […] Additionally, to determine the safety profile of the test compounds, therapeutic indexes (TI) (the ratio of IC50 values in HaCat to cancer cells (K562, PC3, SW620, Cack-1)) were calculated.
For orientation: Formazan colour is commonly taken as a measure of viable cells.

For assay [2], the system named is PC3 cells (human metastatic prostate cancer). Put plainly: MTT cytotoxicity assay, PC3. The following applies: PC-3, 72 h incubation, mean ± SD. In kind it is cell-based. As for the experimental part:
as §1, §2, §3

For assay [3], the system named is Cacki-1 cells (human clear cell renal cell carcinoma). Nature of the assay: MTT cytotoxicity assay, Cacki-1. Type of assay: cell-based. The following applies: 72 h incubation. The protocol: as §1, §2, §3
The test system of assay [4] is K562 cells (human chronic myelogenous leukemia). Put plainly: MTT cytotoxicity assay, K562. Type of assay: cell-based. The following applies: 72 h incubation, mean ± SD. As for the experimental part: as §1, §2, §3
Assay [5] has as its system SW620 cells (human metastatic colon cancer). Nature of the assay: MTT cytotoxicity assay, SW620. Type of assay: cell-based. Particulars: SW-620, 72 h incubation, mean ± SD. As for the experimental part: as §1, §2, §3
In a further assay the test system is K562 cells. Put plainly: Annexin V-FITC/PI apoptosis assay, flow cytometry. Type of assay: cell-based, human. The following applies: Annexin V-FITC, IC50 concentration, 72 h. The text has this:
ROS may play a different function in different stages of cancer. ROS might enhance cell growth and proliferation through the induction of various cell signaling pathways involving nuclear factor-kappa B (NF-κB) and STAT3, hypoxia-inducible factor 1α (HIF1α), kinases, growth factors, cytokines and many other proteins. On the other hand, the accumulation of ROS can induce cell damage and promote apoptosis. It has also been confirmed that elevated ROS concentration may cause mitochondrial membrane depolarization and facilitate increased cellular pro-apoptotic molecules releasing. […] As has been previously reported, lead compound 1,1′-[3-(bromomethyl)-5,6-dimethoxy-1-benzofuran-2,7-diyl] induces apoptosis in human leukemia cells. […] We used the Annexin V-FITC test, which allows us to detect the early structural changes in cellular membrane which occur during apoptosis. […] In the control sample almost 94% of cells were neither apoptotic nor necrotic. […] As has been previously written, the MTT test assesses the toxicity of tested compounds based on the activity of mitochondrial enzymes. […] In order to estimate the effect of K562 exposure on the tested compounds as well as to confirm apoptotic properties of new benzofurans, we analyzed the effect of the compounds caspases 3 and 7 activities. […]
(In general: A flow cytometer gives signals particle by particle.)

By IC50 is commonly meant the concentration that gives 50% inhibition. Read a low IC50 as greater potency in that assay. `COc1cc(OC)c2c(CBr)c(C(C)=O)oc2c1` [Compound 6, 1-[3-(Bromomethyl)-4,6-Dimethoxy-1-Benzofuran-2-yl]Ethanone]: the “Cell Number (×10^6)” value with HaCaT cells is on record as 2.45 ± 1.63 ×10^6. Besides, the IC50 was 12.4 ± 1.27 µM in assay [1]; 7.02 ± 2.22 µM in assay [2]; above 100 µM in assay [3]; 3.83 ± 0.6 µM in assay [4]; above 100 µM in assay [5]. Moreover, in the assay with K562 cells, the “Apoptosis (early and late stages), share of K562 cells” value is reported as 21.6%.

Turning to `CCOc1cccc2oc(C(C)=O)c(CBr)c12` [Compound 8, 1-[3-(Bromomethyl)-4-Ethoxy-1-Benzofuran-2-yl]Ethanone], the “Cell Number (×10^6)” value with HaCaT cells is listed as 2.00 ± 0.42 ×10^6. The IC50 was 23.6 ± 10.7 µM in assay [1]; 7.86 ± 2.62 µM in assay [2]; above 100 µM in assay [3]; 2.59 ± 0.88 µM in assay [4]; above 100 µM in assay [5]. In the assay with K562 cells, the “Apoptosis (early and late stages), share of K562 cells” value was 60.1%.
